Reference: US20230286958A1, “PLASMA KALLIKREIN INHIBITORS” (Merck Sharp & Dohme LLC, priority 2020, published 2023)

Legend:
human Factor XIa = human Factor XIa (Homo sapiens (Human), UniProt P03951); assay: Factor XIa Assay (fluorogenic substrate GPR-AFC); format: biochemical; conditions: Factor XIa (FXIa)
Human plasma kallikrein = Human plasma kallikrein (Homo sapiens (Human), UniProt P03952); assay: Kallikrein Assay (fluorogenic substrate Acetyl-K-P-R-AFC); format: biochemical; conditions: Plasma Kallikrein (PKal)
Sequence of Human plasma kallikrein (P03952 391-638): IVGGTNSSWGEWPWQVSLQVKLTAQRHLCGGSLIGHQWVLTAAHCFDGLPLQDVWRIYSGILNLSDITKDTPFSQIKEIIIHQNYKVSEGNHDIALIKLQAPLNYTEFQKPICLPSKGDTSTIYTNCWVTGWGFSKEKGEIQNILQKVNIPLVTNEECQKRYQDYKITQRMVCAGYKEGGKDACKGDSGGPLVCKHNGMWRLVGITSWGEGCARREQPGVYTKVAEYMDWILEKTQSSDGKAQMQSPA
Sequence of Human plasma kallikrein (P03952 20-390 partner): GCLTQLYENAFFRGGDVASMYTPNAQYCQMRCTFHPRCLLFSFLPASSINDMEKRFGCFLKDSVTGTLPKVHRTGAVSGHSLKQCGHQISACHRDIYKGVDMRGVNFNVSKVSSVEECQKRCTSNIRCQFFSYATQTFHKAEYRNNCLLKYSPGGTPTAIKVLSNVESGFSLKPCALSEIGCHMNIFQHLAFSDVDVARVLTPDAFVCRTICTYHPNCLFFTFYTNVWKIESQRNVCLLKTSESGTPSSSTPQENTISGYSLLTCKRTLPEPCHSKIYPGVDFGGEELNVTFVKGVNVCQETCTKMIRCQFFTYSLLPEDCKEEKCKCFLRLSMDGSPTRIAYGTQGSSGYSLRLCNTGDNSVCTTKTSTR
Procedure, shortened: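 Ki is derived from IC50 with the Cheng-Prusoff equation, and IC50 from the inflection point of a four-parameter logistic curve. The rate of AFC release is read with 0.5 nM purified enzyme and […] substrate at room temperature or 37 °C.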

Sequence of human Factor XIa (P03951 388-625 limits assumed): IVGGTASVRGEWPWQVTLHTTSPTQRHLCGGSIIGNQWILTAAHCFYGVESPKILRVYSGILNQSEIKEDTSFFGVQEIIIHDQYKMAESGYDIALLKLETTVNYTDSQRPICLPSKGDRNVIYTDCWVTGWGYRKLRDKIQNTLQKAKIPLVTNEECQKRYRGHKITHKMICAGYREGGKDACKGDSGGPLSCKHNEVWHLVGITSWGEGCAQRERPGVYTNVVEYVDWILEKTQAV
Sequence of human Factor XIa (P03951 19-387 partner limits assumed): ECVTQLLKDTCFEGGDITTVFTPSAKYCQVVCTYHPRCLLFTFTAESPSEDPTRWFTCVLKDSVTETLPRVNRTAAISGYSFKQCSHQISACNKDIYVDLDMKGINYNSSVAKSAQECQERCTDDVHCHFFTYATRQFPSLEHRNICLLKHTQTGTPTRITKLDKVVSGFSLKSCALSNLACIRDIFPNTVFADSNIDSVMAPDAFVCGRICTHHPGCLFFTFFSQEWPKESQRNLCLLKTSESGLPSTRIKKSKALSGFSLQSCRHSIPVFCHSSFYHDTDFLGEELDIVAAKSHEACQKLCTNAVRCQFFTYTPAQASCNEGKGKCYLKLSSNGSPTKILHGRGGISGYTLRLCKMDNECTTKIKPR

| SMILES | IC50 (human Factor XIa) | IC50 (Human plasma kallikrein) |
| --- | --- | --- |
| Cc1nc(C(C)n2cc(NC(=O)c3nc(-c4c(C(F)F)ccc(Cl)c4F)cnc3C(F)F)cn2)cnc1N1C[C@H]2C[C@H]2C1=O (single isomer, unassigned) [Example 101, 6-(3-Chloro-6-(difluoromethyl)-2-fluorophenyl)-3-(difluoromethyl)-N-(1-((R or S)-1-(6-methyl-5-((1R,5S)-2-oxo-3-azabicyclo[3.1.0]hexan-3-yl)pyrazin-2-yl)ethyl)-1H-pyrazol-4-yl)pyrazine-2-carboxamide] | 3.95 µM | 0.0006 µM |
| Cc1cc(C(C)n2cc(NC(=O)c3nc(-c4c(C(F)F)ccc(Cl)c4F)cnc3C)cn2)nnc1N1C[C@H]2C[C@H]2C1=O (single isomer, unassigned) [Example 102, 6-(3-Chloro-6-(difluoromethyl)-2-fluorophenyl)-3-methyl-N-(1-((S or R)-1-(5-methyl-6-((1R,5S)-2-oxo-3-azabicyclo[3.1.0]hexan-3-yl)pyridazin-3-yl)ethyl)-1H-pyrazol-4-yl)pyrazine-2-carboxamide] | 0.739 µM | 0.0007 µM |
| Cc1cc(C(C)n2cc(NC(=O)c3nc(-c4c(C(F)F)ccc(Cl)c4F)cnc3C)cn2)nnc1N1C[C@H]2C[C@H]2C1=O (single isomer, unassigned) [Example 103, 6-(3-Chloro-6-(difluoromethyl)-2-fluorophenyl)-3-methyl-N-(1-((R or S)-1-(5-methyl-6-((1R,5S)-2-oxo-3-azabicyclo[3.1.0]hexan-3-yl)pyridazin-3-yl)ethyl)-1H-pyrazol-4-yl)pyrazine-2-carboxamide] | 0.445 µM | 0.0018 µM |
| Cc1c(C(C)n2cc(NC(=O)c3cncc(-c4c(OC(F)F)ccc(Cl)c4F)n3)cn2)cnc(N2C[C@H]3C[C@H]3C2=O)c1C (single isomer, unassigned) [Example 104, 6-(3-Chloro-6-(difluoromethoxy)-2-fluorophenyl)-N-(1-((S or R)-1-(4,5-dimethyl-6-((1R,5S)-2-oxo-3-azabicyclo[3.1.0]hexan-3-yl)pyridin-3-yl)ethyl)-1H-pyrazol-4-yl)pyrazine-2-carboxamide] | 0.42 µM | 0.0012 µM |
| Cc1c(C(C)n2cc(NC(=O)c3cncc(-c4c(OC(F)F)ccc(Cl)c4F)n3)cn2)cnc(N2C[C@H]3C[C@H]3C2=O)c1C (single isomer, unassigned) [Example 105, 6-(3-Chloro-6-(difluoromethoxy)-2-fluorophenyl)-N-(1-((R or S)-1-(4,5-dimethyl-6-((1R,5S)-2-oxo-3-azabicyclo[3.1.0]hexan-3-yl)pyridin-3-yl)ethyl)-1H-pyrazol-4-yl)pyrazine-2-carboxamide] | 0.101 µM | 0.0006 µM |
| Cc1cc(C(C)n2cc(NC(=O)c3cc(-c4c(C(F)F)ccc(Cl)c4F)c[n+]([O-])c3)cn2)cnc1N1C[C@H]2C[C@H]2C1=O (single isomer, unassigned) [Example 106, 5-(3-Chloro-6-(difluoromethyl)-2-fluorophenyl)-N-(1-((S or R)-1-(5-methyl-6-((1R,5S)-2-oxo-3-azabicyclo[3.1.0]hexan-3-yl)pyridin-3-yl)ethyl)-1H-pyrazol-4-yl)-1-(l1-oxidanyl)-114-pyridine-3-carboxamide] | 0.103 µM | 0.0014 µM |

Second part, the compound after the results:

| IC50 (human Factor XIa) | IC50 (Human plasma kallikrein) | SMILES |
| --- | --- | --- |
| 0.26 µM | 0.0015 µM | Cc1cc(C(C)n2cc(NC(=O)c3cc(-c4c(C(F)F)ccc(Cl)c4F)c[n+]([O-])c3)cn2)cnc1N1C[C@H]2C[C@H]2C1=O (single isomer, unassigned) [Example 107, 5-(3-Chloro-6-(difluoromethyl)-2-fluorophenyl)-N-(1-((R or S)-1-(5-methyl-6-((1R,5S)-2-oxo-3-azabicyclo[3.1.0]hexan-3-yl)pyridin-3-yl)ethyl)-1H-pyrazol-4-yl)-1-(l1-oxidanyl)-114-pyridine-3-carboxamide] |
| > 10 µM | 0.0166 µM | Cc1ccc(Cl)c(F)c1-c1cncc(C(=O)Nc2cnn(C(C)c3cnc(N4C[C@H]5C[C@H]5C4=O)nc3C)c2)n1 (single isomer, unassigned) [Example 108, 6-(3 -Chloro-2-fluoro-6-methylphenyl)-N-(1-((S or R)-1-(4-methyl-2-((1R,5S)-2-oxo-3-azabicyclo[3.1.0]hexan-3-yl)pyrimidin-5-yl)ethyl)-1H-pyrazol-4-yl)pyrazine-2-carboxamide] |
| 1.92 µM | 0.0051 µM | Cc1ccc(Cl)c(F)c1-c1cncc(C(=O)Nc2cnn(C(C)c3cnc(N4C[C@H]5C[C@H]5C4=O)nc3C)c2)n1 (single isomer, unassigned) [Example 109, 6-(3 -Chloro-2-fluoro-6-methylphenyl)-N-(1-((R or S)-1-(4-methyl-2-((1R,5S)-2-oxo-3-azabicyclo[3.1.0]hexan-3-yl)pyrimidin-5-yl)ethyl)-1H-pyrazol-4-yl)pyrazine-2-carboxamide] |
| 3.45 µM | 0.014 µM | Cc1c(C(C)n2cc(NC(=O)c3cncc(-c4c(C(F)F)ccc(Cl)c4F)n3)cn2)nnc(N2C[C@H]3C[C@H]3C2=O)c1C (single isomer, unassigned) [Example 110, 6-(3-Chloro-6-(difluoromethyl)-2-fluorophenyl)-N-(1-((S or R)-1-(4,5-dimethyl-6-((1R,5S)-2-oxo-3-azabicyclo[3.1.0]hexan-3-yl)pyridazin-3-yl)ethyl)-1H-pyrazol-4-yl)pyrazine-2-carboxamide] |
| 0.108 µM | 0.0004 µM | Cc1c(C(C)n2cc(NC(=O)c3cncc(-c4c(C(F)F)ccc(Cl)c4F)n3)cn2)nnc(N2C[C@H]3C[C@H]3C2=O)c1C (single isomer, unassigned) [Example 111, 6-(3-Chloro-6-(difluoromethyl)-2-fluorophenyl)-N-(1-((R or S)-1-(4,5-dimethyl-6-((1R,5S)-2-oxo-3-azabicyclo[3.1.0]hexan-3-yl)pyridazin-3-yl)ethyl)-1H-pyrazol-4-yl)pyrazine-2-carboxamide] |
| 0.558 µM | 0.0007 µM | Cc1cc(C(C)n2cc(NC(=O)c3cncc(-c4c(OC(F)F)ccc(Cl)c4F)n3)cn2)nnc1N1C[C@H]2C[C@H]2C1=O (single isomer, unassigned) [Example 114, 6-(3-Chloro-6-(difluoromethoxy)-2-fluorophenyl)-N-(1-((S or R)-1-(5-methyl-6-((1R,5S)-2-oxo-3-azabicyclo[3.1.0]hexan-3-yl)pyridazin-3-yl)ethyl)-1H-pyrazol-4-yl)pyrazine-2-carboxamide] |
| 0.468 µM | 0.0025 µM | Cc1cc(C(C)n2cc(NC(=O)c3cncc(-c4c(OC(F)F)ccc(Cl)c4F)n3)cn2)nnc1N1C[C@H]2C[C@H]2C1=O (single isomer, unassigned) [Example 115, 6-(3-Chloro-6-(difluoromethoxy)-2-fluorophenyl)-N-(1-((R or S)-1-(5-methyl-6-((1R,5S)-2-oxo-3-azabicyclo[3.1.0]hexan-3-yl)pyridazin-3-yl)ethyl)-1H-pyrazol-4-yl)pyrazine-2-carboxamide] |
| > 10 µM | 0.0019 µM | Cc1c(N2C[C@H]3C[C@H]3C2=O)cnc(C(C)n2cc(NC(=O)c3cncc(-c4c(C(F)F)ccc(Cl)c4F)n3)cn2)c1N (single isomer, unassigned) [Example 117, N-(1-((S or R)-1-(3-Amino-4-methyl-5-((1R,SS)-2-oxo-3-azabicyclo[3.1.0]hexan-3-yl)pyridin-2-yl)ethyl)-1H-pyrazol-4-yl)-6-(3-chloro-6-(difluoromethyl)-2-fluorophenyl)pyrazine-2-carboxamide] |
